What was measured:
Rho kinase 1 = Rho kinase 1 (Homo sapiens, UniProt Q13464); assay: In vitro Rho kinase inhibitory activity assay (ADP-Glo kit, Myelin Basic Protein substrate); type: biochemical; settings: 10 μM ATP, 25° C., read-out: ROCK1 inhibitory activity (Ki, range of activity)
Summary of the method: (§1)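 Kinase activity is measured as ADP production (ADP-Glo, luminescence) after 1 hour at 25 °C with 10 μM ATP and 2.5 μM Myelin Basic Protein, following 30 min enzyme–compound preincubation. Buffer is 40 mM Tris pH7.5, 20 mM MgCl2, 0.1 mg/ml BSA, 50 μM DTT.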

Rho kinase 2 = Rho kinase 2 (Homo sapiens, UniProt O75116); assay: as above; type: biochemical; settings: 10 μM ATP, 25° C., read-out: ROCK2 inhibitory activity (Ki, range of activity)
Summary of the method: as §1

Sequence of Rho kinase 2 (O75116 whole entry): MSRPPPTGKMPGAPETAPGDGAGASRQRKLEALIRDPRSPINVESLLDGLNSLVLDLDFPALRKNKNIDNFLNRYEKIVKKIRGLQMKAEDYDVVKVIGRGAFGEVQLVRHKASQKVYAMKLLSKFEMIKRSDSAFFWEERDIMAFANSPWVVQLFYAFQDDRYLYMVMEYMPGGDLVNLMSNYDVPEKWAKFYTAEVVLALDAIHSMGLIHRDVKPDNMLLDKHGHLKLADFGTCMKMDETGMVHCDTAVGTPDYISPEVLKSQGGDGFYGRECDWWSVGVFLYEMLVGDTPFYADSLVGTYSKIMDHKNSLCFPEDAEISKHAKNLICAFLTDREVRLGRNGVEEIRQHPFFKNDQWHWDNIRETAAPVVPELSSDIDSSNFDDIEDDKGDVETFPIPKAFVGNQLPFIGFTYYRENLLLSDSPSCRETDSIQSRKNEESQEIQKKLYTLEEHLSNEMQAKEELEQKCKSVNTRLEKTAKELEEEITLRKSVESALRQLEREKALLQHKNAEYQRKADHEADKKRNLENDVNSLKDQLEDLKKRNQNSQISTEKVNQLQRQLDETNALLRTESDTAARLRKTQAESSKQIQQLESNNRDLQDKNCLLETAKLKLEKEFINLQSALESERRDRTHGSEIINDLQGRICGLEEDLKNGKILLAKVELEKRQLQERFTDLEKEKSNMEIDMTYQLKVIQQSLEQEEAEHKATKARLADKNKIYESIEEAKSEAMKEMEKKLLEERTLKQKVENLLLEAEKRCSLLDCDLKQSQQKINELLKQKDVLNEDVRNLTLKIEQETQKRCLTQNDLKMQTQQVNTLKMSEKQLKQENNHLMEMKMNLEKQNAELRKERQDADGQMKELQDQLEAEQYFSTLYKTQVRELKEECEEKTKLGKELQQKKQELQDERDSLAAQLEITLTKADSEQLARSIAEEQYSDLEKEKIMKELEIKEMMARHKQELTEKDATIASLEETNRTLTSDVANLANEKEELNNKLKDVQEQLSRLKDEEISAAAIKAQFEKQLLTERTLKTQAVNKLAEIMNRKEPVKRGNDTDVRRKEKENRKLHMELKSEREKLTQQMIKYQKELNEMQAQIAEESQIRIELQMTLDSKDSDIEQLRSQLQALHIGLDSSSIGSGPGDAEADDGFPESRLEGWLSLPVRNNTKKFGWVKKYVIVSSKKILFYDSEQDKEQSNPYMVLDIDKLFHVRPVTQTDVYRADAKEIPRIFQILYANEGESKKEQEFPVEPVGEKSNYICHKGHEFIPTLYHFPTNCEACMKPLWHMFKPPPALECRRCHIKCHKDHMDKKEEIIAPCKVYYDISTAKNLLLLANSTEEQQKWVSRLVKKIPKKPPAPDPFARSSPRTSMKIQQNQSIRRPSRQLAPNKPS
Sequence of Rho kinase 1 (Q13464 whole entry): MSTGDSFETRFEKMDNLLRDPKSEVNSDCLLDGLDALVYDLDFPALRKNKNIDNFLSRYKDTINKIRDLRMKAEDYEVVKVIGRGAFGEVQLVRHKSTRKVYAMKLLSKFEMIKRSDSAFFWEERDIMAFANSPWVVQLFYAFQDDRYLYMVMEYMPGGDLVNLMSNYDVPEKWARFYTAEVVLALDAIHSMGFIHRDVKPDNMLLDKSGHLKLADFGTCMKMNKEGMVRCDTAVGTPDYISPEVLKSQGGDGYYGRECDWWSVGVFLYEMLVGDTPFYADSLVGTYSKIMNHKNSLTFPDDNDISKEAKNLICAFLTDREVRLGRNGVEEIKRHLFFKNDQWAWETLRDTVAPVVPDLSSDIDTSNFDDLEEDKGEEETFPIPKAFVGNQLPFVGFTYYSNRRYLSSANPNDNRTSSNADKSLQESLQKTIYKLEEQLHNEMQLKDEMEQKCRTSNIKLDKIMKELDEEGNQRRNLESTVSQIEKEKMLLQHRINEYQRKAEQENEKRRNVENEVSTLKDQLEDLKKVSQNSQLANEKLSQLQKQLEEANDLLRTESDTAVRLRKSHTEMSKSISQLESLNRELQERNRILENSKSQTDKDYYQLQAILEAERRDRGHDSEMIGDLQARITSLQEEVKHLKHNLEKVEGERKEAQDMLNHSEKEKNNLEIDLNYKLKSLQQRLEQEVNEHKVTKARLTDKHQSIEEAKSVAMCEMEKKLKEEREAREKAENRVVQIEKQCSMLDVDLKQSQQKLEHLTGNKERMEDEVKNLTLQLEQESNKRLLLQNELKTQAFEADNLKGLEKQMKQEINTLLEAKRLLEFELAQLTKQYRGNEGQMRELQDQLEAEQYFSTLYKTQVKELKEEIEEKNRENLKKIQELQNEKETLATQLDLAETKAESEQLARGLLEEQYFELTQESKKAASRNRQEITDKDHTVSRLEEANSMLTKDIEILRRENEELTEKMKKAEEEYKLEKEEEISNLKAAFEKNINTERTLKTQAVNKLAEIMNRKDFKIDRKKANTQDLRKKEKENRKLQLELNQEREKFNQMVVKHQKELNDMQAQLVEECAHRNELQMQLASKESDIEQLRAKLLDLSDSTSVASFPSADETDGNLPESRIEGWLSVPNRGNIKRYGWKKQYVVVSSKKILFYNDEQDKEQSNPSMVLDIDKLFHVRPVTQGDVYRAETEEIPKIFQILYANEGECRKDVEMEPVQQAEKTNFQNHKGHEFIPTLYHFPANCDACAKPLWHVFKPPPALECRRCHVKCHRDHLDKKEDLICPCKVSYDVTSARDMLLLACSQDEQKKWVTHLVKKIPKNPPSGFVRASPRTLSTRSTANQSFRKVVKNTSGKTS

Ki (Rho kinase 1) [nM] | Ki (Rho kinase 2) [nM] | Compound
< 50 | < 50 | CC1=C(C(=O)Nc2ccc3cnccc3c2)C(c2ccc(C(F)(F)F)c(F)c2)n2nc(NC(=O)c3ccc(CN(C)C)cc3)cc2N1 (single isomer, unassigned) [Example 137B, 2-(4-((Dimethylamino)methyl)benzamido)-7-(3-fluoro-4-(trifluoromethyl)-phenyl)-N-(isoquinolin-6-yl)-5-methyl-4,7-dihydropyrazolo[1,5-a]pyrimidine-6-carboxamide]
< 50 | < 50 | CC1=C(C(=O)Nc2ccc3cnccc3c2)C(c2ccc(C(F)(F)F)c(F)c2)n2nc(CNC(=O)CCN3CCCCC3)cc2N1 (single isomer, unassigned) [Example 138A, 7-(3-Fluoro-4-(trifluoromethyl)phenyl)-N-(isoquinolin-6-yl)-5-methyl-2-((3-(piperidin-1-yl)propanamido)methyl)-4,7-dihydropyrazolo[1,5-a]pyrimidine-6-carboxamide]
> 500 | > 500 | CC1=C(C(=O)Nc2ccc3cnccc3c2)C(c2ccc(C(F)(F)F)c(F)c2)n2nc(CNC(=O)CCN3CCCCC3)cc2N1 (single isomer, unassigned) [Example 138B, 7-(3-Fluoro-4-(trifluoromethyl)phenyl)-N-(isoquinolin-6-yl)-5-methyl-2-((3-(piperidin-1-yl)propanamido)methyl)-4,7-dihydropyrazolo[1,5-a]pyrimidine-6-carboxamide]
< 50 | < 50 | CCOC(=O)c1cc2n(n1)C(c1ccc(C(F)(F)F)cc1)C(C(=O)Nc1ccc3cnccc3c1)=C(C)N2 (stereo not drawn) [Example 1, ethyl 6-(isoquinolin-6-ylcarbamoyl)-5-methyl-7-(4-(trifluoromethyl)phenyl)-4,7-dihydropyrazolo[1,5-a]pyrimidine-2-carboxylate]
< 50 | < 50 | CCOC(=O)c1cc2n(n1)C(c1ccc(C(F)(F)F)cc1)C(C(=O)Nc1ccc3[nH]ncc3c1)=C(C)N2 (stereo not drawn) [Example 2, ethyl 6-((1H-indazol-5-yl)carbamoyl)-5-methyl-7-(4-(trifluoromethyl)phenyl)-4,7-dihydropyrazolo[1,5-a]pyrimidine-2-carboxylate]
< 50 | < 50 | CCOC(=O)c1cc2n(n1)C(c1ccc(C)cc1)C(C(=O)Nc1ccc3[nH]ncc3c1)=C(C)N2 (stereo not drawn) [Example 3, ethyl 6-((1H-indazol-5-yl)carbamoyl)-5-methyl-7-(p-tolyl)-4,7-dihydropyrazolo[1,5-a]pyrimidine-2-carboxylate]
50 to 500 | 50 to 500 | CCOC(=O)c1cc2n(n1)C(c1cccc(OC)c1)C(C(=O)Nc1ccc3[nH]ncc3c1)=C(C)N2 (stereo not drawn) [Example 6, ethyl 6-((1H-indazol-5-yl)carbamoyl)-7-(3-methoxyphenyl)-5-methyl-4,7-dihydropyrazolo[1,5-a]pyrimidine-2-carboxylate]
< 50 | < 50 | CCOC(=O)c1cc2n(n1)C(c1nc3ccccc3s1)C(C(=O)Nc1ccc3cnccc3c1)=C(C)N2 (stereo not drawn) [Example 8, ethyl 7-(benzo[d]thiazol-2-yl)-6-(isoquinolin-6-ylcarbamoyl)-5-methyl-4,7-dihydropyrazolo[1,5-a]pyrimidine-2-carboxylate]
< 50 | < 50 | CCOC(=O)c1cc2n(n1)C(c1ccc(O)cc1)C(C(=O)Nc1ccc3cnccc3c1)=C(C)N2 (stereo not drawn) [Example 9, ethyl 7-(4-hydroxyphenyl)-6-(isoquinolin-6-ylcarbamoyl)-5-methyl-4,7-dihydropyrazolo[1,5-a]pyrimidine-2-carboxylate]
< 50 | < 50 | CCOC(=O)c1cc2n(n1)C(c1ccc(O)c(F)c1)C(C(=O)Nc1ccc3cnccc3c1)=C(C)N2 (stereo not drawn) [Example 10, ethyl 7-(3-fluoro-4-hydroxyphenyl)-6-(isoquinolin-6-ylcarbamoyl)-5-methyl-4,7-dihydropyrazolo[1,5-a]pyrimidine-2-carboxylate]
> 500 | > 500 | CCOC(=O)c1cc2n(n1)C(c1ccc(C(F)(F)F)c(F)c1)C(C(=O)Nc1ccn3cnnc3c1)=C(C)N2 (stereo not drawn) [Example 15, ethyl 6-([1,2,4]triazolo[4,3-a]pyridin-7-ylcarbamoyl)-7-(3-fluoro-4-(trifluoromethyl)phenyl)-5-methyl-4,7-dihydropyrazolo[1,5-a]pyrimidine-2-carboxylate]
< 50 | < 50 | COc1ccc(-c2cc3n(n2)C(c2ccc(F)cc2)C(C(=O)Nc2ccc4[nH]ncc4c2)=C(C)N3)cc1 (stereo not drawn) [Example 20, 7-(4-fluorophenyl)-N-(1H-indazol-5-yl)-2-(4-methoxyphenyl)-5-methyl-4,7-dihydropyrazolo[1,5-a]pyrimidine-6-carboxamide]
50 to 500 | 50 to 500 | COc1ccccc1-c1cc2n(n1)C(c1ccc(F)cc1)C(C(=O)Nc1ccc3[nH]ncc3c1)=C(C)N2 (stereo not drawn) [Example 21, 7-(4-fluorophenyl)-N-(1H-indazol-5-yl)-2-(2-methoxyphenyl)-5-methyl-4,7-dihydropyrazolo[1,5-a]pyrimidine-6-carboxamide]
< 50 | < 50 | CC1=C(C(=O)Nc2ccc3[nH]ncc3c2)C(c2ccc(F)cc2)n2nc(C)cc2N1 (stereo not drawn) [Example 28, 7-(4-fluorophenyl)-N-(1H-indazol-5-yl)-2,5-dimethyl-4,7-dihydropyrazolo[1,5-a]pyrimidine-6-carboxamide]
< 50 | < 50 | CC1=C(C(=O)Nc2ccc3[nH]ncc3c2)C(c2ccc(F)cc2)n2nc(C(C)(C)C)cc2N1 (stereo not drawn) [Example 29, 2-(tert-butyl)-7-(4-fluorophenyl)-N-(1H-indazol-5-yl)-5-methyl-4,7-dihydropyrazolo[1,5-a]pyrimidine-6-carboxamide]

The next lines start with the compound.

Compound | Ki (Rho kinase 1) [nM] | Ki (Rho kinase 2) [nM]
CCOC(=O)c1cc2n(n1)C(c1ccc(Cl)nc1)C(C(=O)Nc1ccc3[nH]ncc3c1)=C(C)N2 (stereo not drawn) [Example 5, ethyl 6-((1H-indazol-5-yl)carbamoyl)-7-(6-chloropyridin-3-yl)-5-methyl-4,7-dihydropyrazolo[1,5-a]pyrimidine-2-carboxylate] | < 50 | < 50
CCOC(=O)c1cc2n(n1)C(C1CCOCC1)C(C(=O)Nc1ccc3[nH]ncc3c1)=C(C)N2 (stereo not drawn) [Example 11, ethyl 6-((1H-indazol-5-yl)carbamoyl)-5-methyl-7-(tetrahydro-2H-pyran-4-yl)-4,7-dihydropyrazolo[1,5-a]pyrimidine-2-carboxylate] | 50 to 500 | 50 to 500
CCOC(=O)c1cc2n(n1)C(C1CCN(C)CC1)C(C(=O)Nc1ccc3[nH]ncc3c1)=C(C)N2 (stereo not drawn) [Example 12, ethyl 6-((1H-indazol-5-yl)carbamoyl)-5-methyl-7-(1-methylpiperidin-4-yl)-4,7-dihydropyrazolo[1,5-a]pyrimidine-2-carboxylate] | > 500 | > 500
CCOC(=O)c1cc2n(n1)C(CC(C)C)C(C(=O)Nc1ccc3[nH]ncc3c1)=C(C)N2 (stereo not drawn) [Example 13, ethyl 6-((1H-indazol-5-yl)carbamoyl)-7-isobutyl-5-methyl-4,7-dihydropyrazolo[1,5-a]pyrimidine-2-carboxylate] | 50 to 500 | 50 to 500
CCOC(=O)c1cc2n(n1)C(C1CCCCC1)C(C(=O)Nc1ccc3[nH]ncc3c1)=C(C)N2 (stereo not drawn) [Example 14, ethyl 6-((1H-indazol-5-yl)carbamoyl)-7-cyclohexyl-5-methyl-4,7-dihydropyrazolo[1,5-a]pyrimidine-2-carboxylate] | 50 to 500 | < 50
CCOC(=O)c1nn2c(c1C#N)NC(C)=C(C(=O)Nc1ccc3[nH]ncc3c1)C2c1ccc(C(F)(F)F)cc1 (stereo not drawn) [Example 16, ethyl 6-((1H-indazol-5-yl)carbamoyl)-3-cyano-5-methyl-7-(4-(trifluoromethyl)phenyl)-4,7-dihydropyrazolo[1,5-a]pyrimidine-2-carboxylate] | < 50 | < 50
CCOC(=O)c1cnn2c1NC(C)=C(C(=O)Nc1ccc3[nH]ncc3c1)C2c1ccc(F)cc1 (stereo not drawn) [Example 17, ethyl 6-((1H-indazol-5-yl)carbamoyl)-7-(4-fluorophenyl)-5-methyl-4,7-dihydropyrazolo[1,5-a]pyrimidine-3-carboxylate] | > 500 | > 500
CC1=C(C(=O)Nc2ccc3[nH]ncc3c2)C(c2ccc(F)cc2)n2ncc(C#N)c2N1 (stereo not drawn) [Example 18, 3-cyano-7-(4-fluorophenyl)-N-(1H-indazol-5-yl)-5-methyl-4,7-dihydropyrazolo[1,5-a]pyrimidine-6-carboxamide] | < 50 | < 50
CC1=C(C(=O)Nc2ccc3[nH]ncc3c2)C(c2ccc(F)cc2)n2ncc(C(N)=O)c2N1 (stereo not drawn) [Example 19, 7-(4-fluorophenyl)-N6-(1H-indazol-5-yl)-5-methyl-4,7-dihydropyrazolo[1,5-a]pyrimidine-3,6-dicarboxamide] | 50 to 500 | 50 to 500
CC1=C(C(=O)Nc2ccc3[nH]ncc3c2)C(c2ccc(F)cc2)n2ncc(Br)c2N1 (stereo not drawn) [Example 22, 3-bromo-7-(4-fluorophenyl)-N-(1H-indazol-5-yl)-5-methyl-4,7-dihydropyrazolo[1,5-a]pyrimidine-6-carboxamide] | < 50 | < 50
CC1=C(C(=O)Nc2ccc3[nH]ncc3c2)C(c2ccc(F)cc2)n2nc(Br)cc2N1 (stereo not drawn) [Example 30, 2-bromo-7-(4-fluorophenyl)-N-(1H-indazol-5-yl)-5-methyl-4,7-dihydropyrazolo[1,5-a]pyrimidine-6-carboxamide] | < 50 | < 50
CC1=C(C(=O)Nc2ccc3[nH]ncc3c2)C(c2ccc(F)cc2)n2nc(C#N)cc2N1 (stereo not drawn) [Example 31, 2-cyano-7-(4-fluorophenyl)-N-(1H-indazol-5-yl)-5-methyl-4,7-dihydropyrazolo[1,5-a]pyrimidine-6-carboxamide] | < 50 | < 50
